Read-outs that look alike come from different tables or passages of the source.
How the values were obtained:
[1] = Maurizis et al. 2000, 7.4 MBq/Kg; cited from earlier work
[2] = Study 2: biodistribution in healthy New Zealand rabbits (gamma counting of dissected organs); assay type: in vivo; conditions: i.v.
Procedure: Biodistribution were determined in 36 healthy New Zealand rabbits (18 males and 18 females, 14 weeks old, 3.5 kg weight, Charles River, France), being randomly divided into two groups: • One group receiving ^99mTc-NTP 15-5: 18±3 MBq/animal for biodistribution; • One group receiving ^64Cu-2: 17±4 MBq/animal for biodistribution.
The compounds were i.v. administered to anesthetized animals (ketamine/xylazine by intramuscular route) in the marginal ear vein.
At selected time points after injection (15 min, 1 h, 3 h, 6 h, 20 h after injection), animals (3 animals/time point/compound) were sacrificed by a lethal i.v. dose of pentobarbital. Organs of interest were dissected, weighed and their radioactivity measured using a gamma counter (Model 1480 Wizard, Perkin Elmer Life Sciences, Boston, USA). After radioactive decay correction, results were expressed for each organ as % injected dose per gram (% ID/g) and averaged per group and per time point.

[3] = Study 1: biodistribution of ^99mTc-NTP 15-5 in healthy rat; assay type: in vivo; conditions: 1 h p.i., 0.37 MBq, average from 3 animals ± SD
Procedure: Quantitative biodistribution of radiolabelled compounds was determined in rats: healthy animals as well as rats with primary grade II orthotopic chondrosarcoma at stage Day-30 after induction. The chondrosarcoma model was the Swarm Rat Chondrosarcoma model (SRC) implanted in paratibial location. […] One hour after injection, animals were then sacrificed by CO2 inhalation, dissected and organs of interest removed, weighed and their radioactivity counted using a gamma counter (Model 1480 Wizard, Perkin Elmer Life Sciences, Boston, USA). Organs collected were blood, muscle, knee, kidneys, liver, thoracic ribs, bladder for both healthy and chondrosarcoma bearing rats. For SRC animals, tumour was also sampled. After radioactive decay correction, results were expressed for each organ as % injected dose per gram (% ID/g) and averaged per group.
The following table discloses the biodistribution of ^99mTc-NTP 15-5 in healthy rat, carried out in similar conditions than those of the compounds of the invention (see section C above).

[4] = Biodistribution in healthy and SRC bearing rats at 1 h after i.v. injection of radiolabelled compounds; assay type: in vivo; conditions: mean ± SD (n = 3)
Procedure: (§1) Quantitative biodistribution of radiolabelled compounds was determined in rats: healthy animals as well as rats with primary grade II orthotopic chondrosarcoma at stage Day-30 after induction. The chondrosarcoma model was the Swarm Rat Chondrosarcoma model (SRC) implanted in paratibial location. Radiolabelled compounds (5-10 Mbq/animal) were i.v. administered in the caudal vein of animals being anesthetized of mixture of ketamine (58 mg/kg i.p.) (Imalgéne 500®) and xylazine (6 mg/kg i.p.) (Rompun® 2%, Bayer, France). One hour after injection, animals were then sacrificed by CO2 inhalation, dissected and organs of interest removed, weighed and their radioactivity counted using a gamma counter (Model 1480 Wizard, Perkin Elmer Life Sciences, Boston, USA). Organs collected were blood, muscle, knee, kidneys, liver, thoracic ribs, bladder for both healthy and chondrosarcoma bearing rats. For SRC animals, tumour was also sampled. After radioactive decay correction, results were expressed for each organ as % injected dose per gram (% ID/g) and averaged per group.

[5] = Study 3: quantitative biodistribution of ^64Cu-5 in rats; assay type: in vivo
Procedure: as §1, with “USA).” for “USA). Organs collected were blood, muscle, knee, kidneys, liver, thoracic ribs, bladder for both healthy and chondrosarcoma bearing rats.”, “tumor” for “tumour”
The comparison was carried out between ^64Cu-5 and ^99mTc-NTPC, the NTPC ligand having the following structure: […]

[6] = i.v., 5-10 MBq/animal, one hour after injection

Question: For `CC[N+](CC)(CC)CCCN1CCCNCCNCCCNCC1` [^99mTc-NTPC, metal not drawn], which Articular Cartilage [1] is on record?
Answer: 0.52 ± 0.08 % ID/g

Question: And the Blood [1]?
Answer: 0.22 ± 0.05 % ID/g

Question: What about the Intervertebral disc [1] of the same molecule?
Answer: 0.36 ± 0.09 % ID/g

Question: And the Kidney [1]?
Answer: 2.96 ± 0.36 % ID/g

Question: And the Liver [1]?
Answer: 4.34 ± 0.47 % ID/g

Question: Which results are given for `CC[N+](CC)(CC)CCCN1CC[N]2CC[N]3CC[N]4CC[N](CC1)[Tc]234(=[O])=[O].[Br-]` [^99mTc-NTP 15-5, reference compound]?
Answer: Uptake ratio Cartilage/Bone ([2]; 15 min): 51.5; Uptake ratio Cartilage/Muscle ([2]; 15 min): 103; Articular Cartilage ([2]; 15 min after injection): 1.03 ± 0.4 % ID/g; Bile ([2]; 15 min after injection): 0.09 ± 0.08 % ID/g; Blood ([2]; 15 min after injection): 1.09 ± 0.81 % ID/g; Bone ([2]; 15 min after injection): 0.02 ± 0.01 % ID/g; Bone Marrow ([2]; 15 min after injection): 0.02 ± 0.02 % ID/g; Kidney ([2]; 15 min after injection): 0.19 ± 0.03 % ID/g; Liver ([2]; 15 min after injection): 0.05 ± 0.02 % ID/g; Lung ([2]; 15 min after injection): 0.04 ± 0.04 % ID/g; Muscle ([2]; 15 min after injection): 0.01 ± 0.00 % ID/g; Spleen ([2]; 15 min after injection): 0.03 ± 0.06 % ID/g; Thyroid ([2]; 15 min after injection): 0.05 ± 0.04 % ID/g; Urine ([2]; 15 min after injection): 1.40 ± 1.02 % ID/g; Uptake ratio Cartilage/Bone ([2]; 1 h): 46; Articular Cartilage ([2]; 1 h after injection): 0.92 ± 0.4 % ID/g; Bile ([2]; 1 h after injection): 0.09 ± 0.07 % ID/g; Blood ([2]; 1 h after injection): 0.75 ± 0.09 % ID/g; Bone ([2]; 1 h after injection): 0.02 ± 0.00 % ID/g; Bone Marrow ([2]; 1 h after injection): 0.01 ± 0.00 % ID/g; Kidney ([2]; 1 h after injection): 0.10 ± 0.06 % ID/g; Liver ([2]; 1 h after injection): 0.06 ± 0.03 % ID/g; Lung ([2]; 1 h after injection): 0.02 ± 0.00 % ID/g; Muscle ([2]; 1 h after injection): 0.00 ± 0.00 % ID/g; Spleen ([2]; 1 h after injection): 0.02 ± 0.01 % ID/g; Thyroid ([2]; 1 h after injection): 0.06 ± 0.03 % ID/g; Urine ([2]; 1 h after injection): 4.08 ± 5.75 % ID/g; Articular Cartilage ([2]; 3 h after injection): 0.35 ± 0.15 % ID/g; Bile ([2]; 3 h after injection): 0.18 ± 0.24 % ID/g; Blood ([2]; 3 h after injection): 0.17 ± 0.81 % ID/g; Bone ([2]; 3 h after injection): 0.00 ± 0.00 % ID/g; Bone Marrow ([2]; 3 h after injection): 0.00 ± 0.00 % ID/g; Kidney ([2]; 3 h after injection): 0.09 ± 0.03 % ID/g; Liver ([2]; 3 h after injection): 0.08 ± 0.02 % ID/g; Lung ([2]; 3 h after injection): 0.01 ± 0.00 % ID/g; Muscle ([2]; 3 h after injection): 0.00 ± 0.00 % ID/g; Spleen ([2]; 3 h after injection): 0.00 ± 0.00 % ID/g; Thyroid ([2]; 3 h after injection): 0.11 ± 0.01 % ID/g; Urine ([2]; 3 h after injection): 1.34 ± 0.52 % ID/g; Articular Cartilage ([2]; 6 h after injection): 0.09 ± 0.03 % ID/g; Bile ([2]; 6 h after injection): 0.08 ± 0.02 % ID/g; Blood ([2]; 6 h after injection): 0.03 ± 0.00 % ID/g; Bone ([2]; 6 h after injection): 0.00 ± 0.00 % ID/g; Bone Marrow ([2]; 6 h after injection): 0.00 ± 0.00 % ID/g; Kidney ([2]; 6 h after injection): 0.06 ± 0.01 % ID/g; Liver ([2]; 6 h after injection): 0.06 ± 0.01 % ID/g; Lung ([2]; 6 h after injection): 0.00 ± 0.00 % ID/g; Muscle ([2]; 6 h after injection): 0.00 ± 0.00 % ID/g; Spleen ([2]; 6 h after injection): 0.00 ± 0.00 % ID/g; Thyroid ([2]; 6 h after injection): 0.02 ± 0.03 % ID/g; Urine ([2]; 6 h after injection): 1.61 ± 0.6 % ID/g; Articular Cartilage ([2]; 20 h after injection): 0.04 ± 0.01 % ID/g; Bile ([2]; 20 h after injection): 0.03 ± 0.01 % ID/g; Blood ([2]; 20 h after injection): 0.00 ± 0.00 % ID/g; Bone ([2]; 20 h after injection): 0.00 ± 0.00 % ID/g; Bone Marrow ([2]; 20 h after injection): 0.00 ± 0.00 % ID/g; Kidney ([2]; 20 h after injection): 0.07 ± 0.00 % ID/g; Liver ([2]; 20 h after injection): 0.03 ± 0.02 % ID/g; Lung ([2]; 20 h after injection): 0.00 ± 0.00 % ID/g; Muscle ([2]; 20 h after injection): 0.00 ± 0.00 % ID/g; Spleen ([2]; 20 h after injection): 0.01 ± 0.00 % ID/g; Thyroid ([2]; 20 h after injection): 0.00 ± 0.00 % ID/g; Urine ([2]; 20 h after injection): 0.40 ± 0.01 % ID/g; Blood [3]: 0.90 ± 0.08 % ID/g; Bone (tibia) [3]: 0.51 ± 0.29 % ID/g; Brain [3]: 0.14 ± 0.02 % ID/g; Kidney [3]: 15.4 ± 12.5 % ID/g; Liver [3]: 2.02 ± 0.38 % ID/g; Lung [3]: 1.71 ± 0.97 % ID/g; Muscle [3]: 0.37 ± 0.24 % ID/g; Spleen [3]: 0.71 ± 0.25 % ID/g; Testis [3]: 1.11 ± 0.47 % ID/g; Tibial plateau [3]: 2.99 ± 1.60 % ID/g

Question: For `CC[N+](CC)(CC)CCCN1CCCNCCNCCCNCC1.[64Cu+2]` [^64Cu-5, [^64Cu]—N,N,N-Triethyl-3-(1,4,8,11-tetraazacyclotetradecan-1-yl)propan-1-aminium copper(II)], which Tumor ([4]; SRC (Swarm Rat Chondrosarcoma) bearing rats) is on record?
Answer: 5.2 ± 2.1 % ID/g

Question: And the Articular Cartilage ([4]; healthy and SRC bearing rats)?
Answer: 5.9 ± 2.3 % ID/g

Question: What about the Bladder ([4]; healthy and SRC bearing rats) of the same molecule?
Answer: 66.5 ± 14.4 % ID/g

Question: What about the Blood ([4]; healthy and SRC bearing rats) of the same molecule?
Answer: 0.8 ± 1.2 % ID/g

Question: What about the Kidney ([4]; healthy and SRC bearing rats) of the same molecule?
Answer: 27.5 ± 10.1 % ID/g

Question: And the Muscle ([4]; healthy and SRC bearing rats)?
Answer: 1.5 ± 1.2 % ID/g

Question: What about the “Uptake in kidneys compared to ^99mTc-NTPC” value [5] of the same molecule?
Answer: higher uptake

Question: And the Uptake in liver [5]?
Answer: undetectable

Question: And the “Uptake in target organs (intervertebral disc and articular cartilage) compared to ^99mTc-NTPC” value [5]?
Answer: higher uptake

Question: And the Articular Cartilage [5, 6]?
Answer: 5.9 ± 2.3 % ID/g

Question: What about the Blood [5, 6] of the same molecule?
Answer: 0.8 ± 1.2 % ID/g

Question: And the Intervertebral disc [5, 6]?
Answer: 3.5 ± 0.6 % ID/g

Question: And the Kidney [5, 6]?
Answer: 27.5 ± 10.1 % ID/g

Question: And the “Elimination compared to ^99mTc-NTPC” value ([5]; indicated by accumulation in kidneys)?
Answer: good elimination

Question: What about the “In vivo stability (Cu is not released)” value ([5]; inferred from liver uptake) of the same molecule?
Answer: stable

From patent US10351539B2, “Macrocyclic complexes, their process of preparation and use as PET imaging agents” (INSTITUT NATIONAL DE LA SANTE ET DE LA RECHERCHE MEDICALE …, priority 2014, dated 2019)
